The record followed here is paper PMC4948010 (ACS Medicinal Chemistry Letters, 2016).

Data set [1] is described as follows: Intrinsic clearance in rat liver microsomes. In kind it is in vitro ADME. On the technique in general: Liver microsomes are vesicles of endoplasmic reticulum, rich in cytochrome P450 enzymes.
Data set [2] concerns ob/ob mice. Description: Oral glucose tolerance test in ob/ob mice. Conditions: doses 3, 10 and 30 mg/kg oral. In kind it is in vivo, mouse.
The target of data set [3] is T1, human recombinant GK (Homo sapiens, UniProt P35557).
T1 sequence (P35557 1-465): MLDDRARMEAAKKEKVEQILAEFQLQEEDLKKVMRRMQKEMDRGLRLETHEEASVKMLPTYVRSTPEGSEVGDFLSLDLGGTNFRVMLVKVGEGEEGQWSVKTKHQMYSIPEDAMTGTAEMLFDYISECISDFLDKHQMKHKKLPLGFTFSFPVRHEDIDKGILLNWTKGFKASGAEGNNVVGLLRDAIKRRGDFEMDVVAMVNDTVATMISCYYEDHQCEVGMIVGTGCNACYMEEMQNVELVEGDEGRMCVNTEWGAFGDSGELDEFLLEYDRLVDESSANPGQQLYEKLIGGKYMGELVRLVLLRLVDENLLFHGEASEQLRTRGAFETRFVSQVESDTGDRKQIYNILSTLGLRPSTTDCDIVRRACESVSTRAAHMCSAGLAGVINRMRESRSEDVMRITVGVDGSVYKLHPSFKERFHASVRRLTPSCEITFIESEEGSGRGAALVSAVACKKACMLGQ
Description: Glucokinase EC50 assay. In kind it is biochemical. The following applies: compared with the other acyclic C5 analogues of Table 1.

For data set [4], the system named is male Sprague–Dawley rats. Description: Fed blood glucose test in male Sprague-Dawley rats. The following applies: doses 3, 10, 30 and 100 mg/kg oral. Format: in vivo, rat.
Data set [5] in a line: Metabolic identification studies. Format: in vitro ADME.

In general, microsomal CLint refers to the rate of metabolic loss divided by the concentration. A low value points to greater metabolic stability.

For the molecule `CNC(=O)Nc1cc(Oc2cncc(C)c2)c([C@H]2C[C@@H](O)C2)cn1` [Compound 7], the microsomal CLint in data set [1] was determined as 24 µL/min/mg. Besides, in data set [2], the “blood glucose levels during an oral glucose tolerance test” value is given as “dose-proportional decrease”.
As to `CNC(=O)Nc1cc(Oc2cncc(C)c2)c(C(C)CO)cn1` (centres unmarked) [Compound 5], in data set [3], the loss in potency result was “approximately 5 fold”.
`CNC(=O)Nc1cc(Oc2cncc(OC)c2)c([C@H]2CCCOC2)cn1` [Compound 21]: the blood glucose levels entry in data set [4] was “dose-proportional decrease”. Further, the “site of oxidation (metabolic identification)” value in data set [5] is reported as “THP ring as one site of oxidation”.
